CC(C)(C)C(O)(CCc1ccc(Cl)cc1)Cn1cncn1 (stereo not given)
solubility (mole fraction)
Settings | in 2-butanone | in acetone | in acetonitrile | in ethanol | in ethyl acetate | in isopropanol | in methanol | in n-propanol | in toluene
278.15 K | 0.0404 | 0.0304 | 0.00516 | 0.0103 | 0.0244 | 0.00877 | 0.0154 | 0.00704 | 0.0217
280.65 K | 0.0439 | 0.0336 | 0.00585 | 0.0118 | 0.027 | 0.0103 | 0.0174 | 0.00825 | 0.0244
283.15 K | 0.0476 | 0.038 | 0.00662 | 0.0136 | 0.03 | 0.012 | 0.0196 | 0.00953 | 0.0276
285.65 K | 0.0524 | 0.0416 | 0.00746 | 0.0157 | 0.0336 | 0.0138 | 0.0225 | 0.0112 | 0.0311
288.15 K | 0.0569 | 0.0461 | 0.00838 | 0.0179 | 0.0377 | 0.0159 | 0.0253 | 0.0133 | 0.0354
290.65 K | 0.0612 | 0.0507 | 0.00942 | 0.0203 | 0.0421 | 0.018 | 0.0284 | 0.0153 | 0.0404
293.15 K | 0.0659 | 0.0562 | 0.0107 | 0.0234 | 0.0466 | 0.0204 | 0.032 | 0.0175 | 0.0453
295.65 K | 0.0709 | 0.0613 | 0.012 | 0.0264 | 0.0512 | 0.023 | 0.0359 | 0.0201 | 0.0512
298.15 K | 0.076 | 0.0668 | 0.0134 | 0.0299 | 0.0564 | 0.026 | 0.04 | 0.0227 | 0.0578
300.65 K | 0.0815 | 0.0723 | 0.0149 | 0.0333 | 0.0612 | 0.0293 | 0.0444 | 0.0258 | 0.0644
303.15 K | 0.0869 | 0.0789 | 0.0165 | 0.037 | 0.0668 | 0.0328 | 0.0497 | 0.0296 | 0.0712
305.65 K | 0.0928 | 0.0851 | 0.0186 | 0.0411 | 0.0734 | 0.0367 | 0.0551 | 0.0338 | 0.079
308.15 K | 0.0987 | 0.0925 | 0.0208 | 0.0463 | 0.0797 | 0.0416 | 0.06 | 0.0388 | 0.0873
310.65 K | 0.106 | 0.101 | 0.0233 | 0.0515 | 0.0867 | 0.0462 | 0.0659 | 0.0444 | 0.0964
313.15 K | 0.113 | 0.11 | 0.0261 | 0.0572 | 0.0945 | 0.0519 | 0.0724 | 0.0498 | 0.105

Source: BigSolDB 2.1
